The results in this text go back to US20250382308A1, “COMPOUNDS ACTIVE TOWARDS BROMODOMAINS” (NUEVOLUTION A/S, priority 2022, published 2025).

Molecules are shown by their SMILES.

In experiment [1] the target is first bromodomain of BRD4 (Homo sapiens (Human), UniProt O60885). Nature of the experiment: Bromoscan binding assay BRD4 (1). The conditions noted are these: for Kd: Bromoscan, geometric mean where multiple measurements have been made; for Selectivity BRD4(2)/BRD4(1): ratio BRD4(2) Kd / BRD4(1) Kd. The essentials: (§1)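 T7 phage displaying each BRD4 bromodomain, bound to immobilized biotinylated ligand; compounds competed at final 0.1% DMSO/0.9% MEG. Bound bromodomain in eluates quantified by qPCR; Kd from Hill-equation dose-response fit with Hill slope fixed at −1.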

Experiment [2] deals with human recombinant phosphodiesterase (PDE3A) (Homo sapiens (Human), UniProt Q14432). In words: Radiometric PDE3A assay. The experiment is classed as biochemical. The conditions noted are these: [3H]-cAMP hydrolysis, 20 minutes at 30° C. Here is the method:
Partially purified human recombinant phosphodiesterase (PDE3A) was obtained by cloning cDNA and expressing in S. frugiperda insect cells using a baculovirus expression system. Cells were harvested from culture by centrifuging at 400×g for 5 minutes. Cell pellet was resuspended in 20 ml of RIPA Buffer (150 mM NaCl, 10 mM Tris, 0.1% NP-40, pH8.3), 4 ml/200 ml of culture, plus protease inhibitors (100 μl/10 ml) and incubated on ice for 10-20 minutes then spun at 3500×g for 10 minutes at 4° C. Supernatant was kept and the pellet thrown away. Tritium-labeled cyclic AMP was hydrolysed to 5′-AMP by PDE3A. The 5′-AMP was then further hydrolysed to adenosine by nucleotidase in snake venom. An anion-exchange resin binds all charged nucleotides and leaves [3H]adenosine as the only labeled compound to be counted by liquid scintillation. The radiometric assay method is a modification of the two-step method of Thompson and Appleman [Biochemistry 10; 311-316; 1971], adapted for a 96 well plate format. 50 μl of diluted PDE3A was incubated with 50 μl of [3H]-CAMP (specific activity 25 Ci/mmol) and 11 μl of 50% DMSO (or compound dilution) for 20 minutes at 30° C. The enzyme was diluted in 20 mM Tris HCl pH7.4 (×2.2 final concentration) and [3H]-cAMP were diluted in 10 mM MgCl2, 40 mM Tris HCl pH 7.4 (×2.2 final concentration). Reactions were carried out in Greiner 96 deep well 1 ml master-block. The plates were centrifuged for 9 seconds before the 20 minutes incubation. The reaction was terminated by denaturing the PDE enzyme (at 70° C. for 2 minutes, plates were left to cool on ice for 10 minutes) after which 25 μl snake venom nucleotidase (225 ug/ml final concentration) was added and incubated for 10 minutes (at 30° C.), plates were centrifuged for 9 seconds before incubation. After incubation 200 μl Dowex resin (1×8, 200-400 mesh) was added and the plate was shaken for 20 minutes then centrifuged for 3 minutes at 1000×g. 50 μl of supernatant was removed and added to 200 μl of MicroScint-20 in white plates (Greiner 96-well Optiplate) and shaken for 30 minutes before reading on Perkin Elmer TopCount Scintillation Counter. GraphPad Prism™ was used to calculate the IC50 values using a sigmoidal dose response (variable slope). The analysis measures 4 parameters including the best fit values for the bottom and top fit of the curve, the hill slope value and the IC50 value.

The target in experiment [3] is second bromodomain of BRD4 (Homo sapiens (Human), UniProt O60885). In words: Bromoscan binding assay BRD4 (2). The note with it: geometric mean where multiple measurements have been made. The essentials:
as §1

human recombinant phosphodiesterase (PDE3A), sequence (Q14432 whole entry): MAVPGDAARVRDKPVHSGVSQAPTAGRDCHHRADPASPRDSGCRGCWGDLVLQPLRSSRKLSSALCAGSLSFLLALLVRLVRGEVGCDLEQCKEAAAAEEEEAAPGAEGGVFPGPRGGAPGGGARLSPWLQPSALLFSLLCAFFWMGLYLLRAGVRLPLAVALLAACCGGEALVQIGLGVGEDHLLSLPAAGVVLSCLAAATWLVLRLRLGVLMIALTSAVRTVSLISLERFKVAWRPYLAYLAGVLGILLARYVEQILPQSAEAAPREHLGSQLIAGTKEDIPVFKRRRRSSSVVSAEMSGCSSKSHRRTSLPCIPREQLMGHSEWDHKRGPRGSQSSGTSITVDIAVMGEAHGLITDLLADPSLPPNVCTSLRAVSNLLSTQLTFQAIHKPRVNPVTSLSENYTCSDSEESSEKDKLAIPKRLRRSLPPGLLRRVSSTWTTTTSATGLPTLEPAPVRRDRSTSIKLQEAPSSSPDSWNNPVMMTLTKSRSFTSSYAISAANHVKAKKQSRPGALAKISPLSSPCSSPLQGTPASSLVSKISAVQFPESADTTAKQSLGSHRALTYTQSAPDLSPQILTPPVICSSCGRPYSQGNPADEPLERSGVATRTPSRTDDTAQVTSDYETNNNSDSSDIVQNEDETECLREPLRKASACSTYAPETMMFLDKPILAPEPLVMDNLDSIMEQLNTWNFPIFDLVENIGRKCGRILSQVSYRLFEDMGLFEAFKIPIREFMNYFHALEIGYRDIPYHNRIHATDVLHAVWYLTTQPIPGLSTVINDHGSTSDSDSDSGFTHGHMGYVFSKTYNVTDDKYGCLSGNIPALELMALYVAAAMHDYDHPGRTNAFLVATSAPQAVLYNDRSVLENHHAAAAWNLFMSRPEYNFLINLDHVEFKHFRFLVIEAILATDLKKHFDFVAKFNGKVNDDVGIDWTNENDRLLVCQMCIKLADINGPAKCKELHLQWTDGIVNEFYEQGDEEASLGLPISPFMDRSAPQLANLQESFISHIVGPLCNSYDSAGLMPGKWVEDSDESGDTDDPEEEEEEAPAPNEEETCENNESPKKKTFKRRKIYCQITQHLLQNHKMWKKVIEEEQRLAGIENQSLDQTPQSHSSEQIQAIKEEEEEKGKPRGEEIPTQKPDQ

As to `COc1cc(NC(=O)c2cc3c(nc2C2=CCOCC2)COC3)cc2c(C)cc(=O)[nH]c12` [Example 2, 2-(3,6-dihydro-2H-pyran-4-yl)-N-(8-methoxy-4-methyl-2-oxo-1H-quinolin-6-yl)-5,7-dihydrofuro[3,4-b]pyridine-3-carboxamide], in experiment [1], binding was put at a Kd of 0.064 µM and the “Selectivity BRD4(2)/BRD4(1)” value is given as 41. In addition, the IC50 (in general, the concentration that inhibits the measured activity by half) in experiment [2] was above 10 µM. In addition, the Kd (commonly the equilibrium constant for the complex coming apart) in experiment [3] came to 2.6 µM.

Regarding `Cc1c(NC(=O)c2cc3c(nc2N2CCOCC2)COC3)cc2c(C)cc(=O)[nH]c2c1C` [Example 13, 2-morpholino-N-(4,7,8-trimethyl-2-oxo-1H-quinolin-6-yl)-5,7-dihydrofuro[3,4-b]pyridine-3-carboxamide], the Kd is 0.28 µM in experiment [1] and above 10 µM in experiment [3]. The “Selectivity BRD4(2)/BRD4(1)” value in experiment [1] is given as above 35. Moreover, the IC50 in experiment [2] is above 10 µM.
